What was measured:
[1] = Serum pharmacokinetics of RIF and RIFax in mice (p.o., i.p., i.v.; LC-MS/MS); format: in vivo
Experimental: The maximum concentration in serum (Cmax) was obtained from the original data. […] Intestinal contents were weighted, and homogenized in methanol (100 mg/ml). The homogenate was centrifuged at 14,000 rpm for 10 min at 4° C.
The mass spectrometer was operated in the turbo ion spray mode with positive ion detection. The turbo ion spray temperature was maintained at 300° C., and a voltage of 4.8 kV was applied to the sprayer needle. N2 was used as the turbo ion spray and nebulizing gas.

[2] = system: PXR target genes (CYP3A11, GSTA1, MRP2, OATP2); test: qPCR analysis of PXR target genes in WT mice; format: in vivo, wild-type (WT) mice
[3] = system: PXR target genes (CYP3A11, GSTA1, MRP2, OATP2); test: qPCR analysis of PXR target genes in Pxr-null mice; format: in vivo
CAR = biological target: T1, CAR (Mus musculus, UniProt O35627); test: Cell-based reporter assay, transfected HCT116 cells, dual luciferase; conditions: 10 μM, 24 h
T1 construct: expressed in transfected cells; host or cells: HCT116
T1 sequence (O35627 1-358): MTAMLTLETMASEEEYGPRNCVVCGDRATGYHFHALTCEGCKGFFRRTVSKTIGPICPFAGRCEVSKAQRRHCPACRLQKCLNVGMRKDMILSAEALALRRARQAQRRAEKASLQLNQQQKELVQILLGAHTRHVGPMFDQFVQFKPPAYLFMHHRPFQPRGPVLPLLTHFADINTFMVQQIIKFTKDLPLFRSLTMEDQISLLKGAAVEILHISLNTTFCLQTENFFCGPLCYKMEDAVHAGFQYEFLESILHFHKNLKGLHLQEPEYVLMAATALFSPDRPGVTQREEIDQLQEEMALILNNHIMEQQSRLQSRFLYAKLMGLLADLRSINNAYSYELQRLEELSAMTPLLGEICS
Experimental: (§1) A hepG2 cell line (DPX2) with stable expression of recombinant human PXR and a PXR-response element cloned in a luciferase vector was obtained from Puracyp Inc. (Carlsbad, Calif.). The construction and validation of the cell lines were reported previously (Yueh et al., 2005). The cells were seeded according to the distributor's instruction. […] The activation of PXR was determined by measuring the firefly luciferase activity 24 h later, followed by normalization of luciferase activity by protein concentrations. For cell-based reporter assay of nuclear receptors CAR, PPARα, PPARγ, and FXR, HCT116 cells were plated on 24-well plates (5×10^4 cells/well, cultured in DMEM containing 10% FBS), and transfected with the various expression vectors using Fugene transfection reagent (Roche, Indianapolis, Ind.). The mouse PPAR and CAR vectors were described in previous reports (Kliewer et al., 1992; Swales et al., 2005). The mouse FXR vector was provided by Dr Christopher J. Sinal. […] TCPOBOP (250 nM), Wy-14,643 (10 μM), rosiglitazone (10 μM), and GW4064 (25 μM) were used as positive controls respectively for mouse CAR, PPARα, PPARγ, and FXR. A standard dual luciferase assay was used and normalized to a cotransfected control reporter (Promega, Madison, Wis.). Each in vitro assay was repeated at least three times.

FXR = biological target: T2, FXR (Mus musculus, UniProt Q60641); test: as above; conditions: 10 μM, 24 h
T2 construct: expressed in transfected cells; host or cells: HCT116
T2 sequence (Q60641 1-488): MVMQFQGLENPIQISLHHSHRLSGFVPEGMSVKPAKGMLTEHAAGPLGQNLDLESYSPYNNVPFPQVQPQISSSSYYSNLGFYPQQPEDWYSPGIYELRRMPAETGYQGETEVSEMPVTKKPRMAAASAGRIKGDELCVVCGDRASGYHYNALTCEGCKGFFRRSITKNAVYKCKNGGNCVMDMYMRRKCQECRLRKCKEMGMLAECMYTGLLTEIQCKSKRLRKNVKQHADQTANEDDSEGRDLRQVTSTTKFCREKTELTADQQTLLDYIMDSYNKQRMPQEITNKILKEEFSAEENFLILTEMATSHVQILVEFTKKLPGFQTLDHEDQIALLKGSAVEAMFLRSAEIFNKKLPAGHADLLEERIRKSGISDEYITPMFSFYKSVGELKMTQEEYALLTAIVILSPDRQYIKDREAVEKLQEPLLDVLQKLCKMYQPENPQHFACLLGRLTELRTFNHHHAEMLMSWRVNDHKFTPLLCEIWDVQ
Experimental: as §1

PPARα = biological target: T3, PPARα (Mus musculus, UniProt P23204); test: as above; conditions: 10 μM, 24 h
T3 construct: expressed in transfected cells; host or cells: HCT116
T3 sequence (P23204 1-468): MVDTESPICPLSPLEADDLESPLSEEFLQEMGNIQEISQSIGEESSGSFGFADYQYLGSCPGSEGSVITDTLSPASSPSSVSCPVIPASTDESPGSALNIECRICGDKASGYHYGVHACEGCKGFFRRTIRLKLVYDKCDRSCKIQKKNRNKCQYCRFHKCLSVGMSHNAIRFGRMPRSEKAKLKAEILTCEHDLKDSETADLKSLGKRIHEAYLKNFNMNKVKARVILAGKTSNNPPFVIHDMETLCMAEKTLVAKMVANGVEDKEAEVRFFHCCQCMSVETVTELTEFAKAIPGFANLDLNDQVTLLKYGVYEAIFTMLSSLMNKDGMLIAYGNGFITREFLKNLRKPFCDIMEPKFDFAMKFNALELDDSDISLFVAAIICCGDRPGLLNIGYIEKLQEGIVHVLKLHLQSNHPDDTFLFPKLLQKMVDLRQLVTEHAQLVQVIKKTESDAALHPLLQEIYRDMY
Experimental: as §1

CYP3A4 = conditions: two clinical studies; cited from earlier work
[4] = WT mice, small intestine, 25 mg/kg/day p.o. 3 days
[5] = small intestine, 25 mg/kg/day p.o. 3 days

For `COC1/C=C/OC2(C)Oc3c(C)c(O)c4c(O)c(c5c(nc6cc(C)ccn65)c4c3C2=O)NC(=O)/C(C)=C\C=C\C(C)C(O)C(C)C(O)C(C)C(OC(C)=O)C1C` (stereo not drawn) [RIFax, 4-Deoxy-4′-methylpyrido[1′,2′-1,2]imidazo[5,4-c]rifamycin SV], the “AUC compared with RIF” value ([1]; mice, 10 mg/kg i.v.) was “-low”, the “T1/2 compared with RIF” value ([1]; mouse, in vivo, iv, 10 mg/kg) was “ultra-short” and the Cmax ([1]; mouse, serum, mice, single oral dose 10 mg/kg, read-out: Cmax of serum) was 40 nM. For the same compound, the “Intestinal CYP3A11 expression” value [2, 4] was “inhibited”, the “Intestinal GSTA1 mRNA increase” value [2, 4] was 87% and the “Intestinal OATP2 mRNA” value [2, 4] was “no significant induction”. The “intestinal MRP2 mRNA” value [2, 4] was “significantly suppressed”, the “effect on hepatic PXR target genes” value ([2]; wild-type mice, liver, oral treatment) was “no significant effect” and the “effect on hepatic PXR target genes” value ([3]; liver, oral treatment) was “no significant effect”. For the same compound, the “Intestinal CYP3A11 expression” value [3, 5] was “no significant change”, the “Intestinal GSTA1 mRNA increase” value [3, 5] was 74% and the “Intestinal OATP2 mRNA” value [3, 5] was “no significant induction”. The “intestinal MRP2 mRNA” value [3, 5] was “no change”, the “change in luciferase activity in the presence of CAR” value (CAR) was “no significant change” and the “change in luciferase activity in the presence of FXR” value (FXR) was “no significant change”. For the same compound, the “change in luciferase activity in the presence of PPARα” value (PPARα) was “no significant change”, the “effect on intestinal or hepatic CYP3A4” value (CYP3A4) was “no significant effect” and the “effect on the pharmacokinetics of MDZ and of ethinyl estradiol and norgestimate” value (CYP3A4) was “did not alter”.
